# Like-named read-outs stand apart in the source and are kept apart here.
# Experiments:
# Assay type in all cases: in vivo
# [1] = tested on: Galium (catchweed bedstraw, Galium aparine); test: Test A postemergence; settings: Galium, post-emergence, 240 h; for pest or weed control at 125 g/ha: 125 g ai/ha, visual injury vs untreated controls after approx. 10 d, 0 = no effect, 100 = complete control, read-out: Galium plant response rating (0 to 100 scale); for pest or weed control at 500 g/ha: 500 g ai/ha
# Procedure, shortened: (§1)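 Visual injury, scored on a 0–100 scale relative to untreated controls, was recorded about 10 d after application. Treatments were a preemergence soil spray over planted seeds or a postemergence spray on plants at the one- to two-leaf stage, 2 to 10 cm tall, all in loam soil–sand blend in the greenhouse.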
# [2] = tested on: barnyardgrass (Echinochloa crus-galli); test: Test A postemergence; settings: Echinochloa crus-galli, post-emergence, 240 h; for pest or weed control at 125 g/ha: 125 g ai/ha, visual injury vs untreated controls after approx. 10 d, 0 = no effect, 100 = complete control, read-out: Barnyardgrass plant response rating (0 to 100 scale); for pest or weed control at 500 g/ha: 500 g ai/ha
# Procedure, shortened: as §1
# Kochia (Kochia scoparia) [3] = test: Test A postemergence; settings: Bassia scoparia, post-emergence, 240 h; for pest or weed control at 125 g/ha: 125 g ai/ha, visual injury vs untreated controls after approx. 10 d, 0 = no effect, 100 = complete control, read-out: Kochia plant response rating (0 to 100 scale); for pest or weed control at 500 g/ha: 500 g ai/ha
# Procedure, shortened: as §1
# [4] = tested on: pigweed (Amaranthus retroflexus); test: Test A postemergence; settings: Amaranthus retroflexus, post-emergence, 240 h; for pest or weed control at 125 g/ha: 125 g ai/ha, visual injury vs untreated controls after approx. 10 d, 0 = no effect, 100 = complete control, read-out: Pigweed plant response rating (0 to 100 scale); for pest or weed control at 500 g/ha: 500 g ai/ha
# Procedure, shortened: as §1
# [5] = tested on: giant foxtail (Setaria faberii); test: Test A postemergence; settings: Setaria faberi, post-emergence, 240 h; for pest or weed control at 125 g/ha: 125 g ai/ha, visual injury vs untreated controls after approx. 10 d, 0 = no effect, 100 = complete control, read-out: Foxtail, Giant plant response rating (0 to 100 scale); for pest or weed control at 500 g/ha: 500 g ai/ha
# Procedure, shortened: as §1
# [6] = tested on: ryegrass, Italian (Italian ryegrass, Lolium multiflorum); test: Test A postemergence; settings: Lolium multiflorum, post-emergence, 240 h; for pest or weed control at 125 g/ha: 125 g ai/ha, visual injury vs untreated controls after approx. 10 d, 0 = no effect, 100 = complete control, read-out: Ryegrass, Italian plant response rating (0 to 100 scale); for pest or weed control at 500 g/ha: 500 g ai/ha
# Procedure, shortened: as §1
# [7] = tested on: wheat (Triticum aestivum); test: Test A postemergence; settings: Triticum aestivum, post-emergence, 240 h; for plant injury at 125 g/ha: 125 g ai/ha, postemergence, visual injury vs untreated controls after approx. 10 d, 0 = no effect, 100 = complete control, read-out: Wheat plant response rating (0 to 100 scale)
# Procedure, shortened: as §1
# corn (Zea mays) = test: Test A postemergence; settings: Zea mays, post-emergence, 240 h; for plant injury at 125 g/ha: 125 g ai/ha, visual injury vs untreated controls after approx. 10 d, 0 = no effect, 100 = complete control, read-out: Corn plant response rating (0 to 100 scale)
# Procedure, shortened: as §1
# [8] = tested on: ragweed (common ragweed, Ambrosia elatior); test: Test A postemergence; settings: Ambrosia artemisiifolia, post-emergence, 240 h; for pest or weed control at 125 g/ha: 125 g ai/ha, visual injury vs untreated controls after approx. 10 d, 0 = no effect, 100 = complete control, read-out: Ragweed plant response rating (0 to 100 scale); for pest or weed control at 500 g/ha: 500 g ai/ha
# Procedure, shortened: as §1
# [9] = tested on: blackgrass (Alopecurus myosuroides); test: Test A postemergence; settings: Alopecurus myosuroides, post-emergence, 240 h; for pest or weed control at 125 g/ha: 125 g ai/ha, visual injury vs untreated controls after approx. 10 d, 0 = no effect, 100 = complete control, read-out: Blackgrass plant response rating (0 to 100 scale); for pest or weed control at 500 g/ha: 500 g ai/ha
# Procedure, shortened: as §1
# [10] = tested on: barnyardgrass (Echinochloa crus-galli); test: Test A preemergence; settings: Echinochloa crus-galli, pre-emergence, 240 h, preemergence, 0 to 100 scale where 0 is no effect and 100 is complete control, read-out: Barnyardgrass plant response rating; for pest or weed control at 125 g/ha: 125 g ai/ha, visual injury rating, approximately 10 d; for pest or weed control at 500 g/ha: 500 g ai/ha
# Procedure, shortened: as §1
# Kochia (Kochia scoparia) [11] = test: Test A preemergence; settings: Bassia scoparia, pre-emergence, 240 h, preemergence, 0 to 100 scale where 0 is no effect and 100 is complete control, read-out: Kochia plant response rating; for pest or weed control at 125 g/ha: 125 g ai/ha, visual injury rating, approximately 10 d; for pest or weed control at 500 g/ha: 500 g ai/ha
# Procedure, shortened: as §1
# [12] = tested on: pigweed (Amaranthus retroflexus); test: Test A preemergence; settings: Amaranthus retroflexus, pre-emergence, 240 h, preemergence, 0 to 100 scale where 0 is no effect and 100 is complete control, read-out: Pigweed plant response rating; for pest or weed control at 125 g/ha: 125 g ai/ha, visual injury rating, approximately 10 d; for pest or weed control at 500 g/ha: 500 g ai/ha
# [13] = tested on: giant foxtail (Setaria faberii); test: Test A preemergence; settings: Setaria faberi, pre-emergence, 240 h, preemergence, 0 to 100 scale where 0 is no effect and 100 is complete control, read-out: Foxtail, Giant plant response rating; for pest or weed control at 125 g/ha: 125 g ai/ha, visual injury rating, approximately 10 d; for pest or weed control at 500 g/ha: 500 g ai/ha
# Procedure, shortened: as §1
# [14] = tested on: ryegrass, Italian (Italian ryegrass, Lolium multiflorum); test: Test A preemergence; settings: Lolium multiflorum, pre-emergence, 240 h, preemergence, 0 to 100 scale where 0 is no effect and 100 is complete control, read-out: Ryegrass, Italian plant response rating; for pest or weed control at 125 g/ha: 125 g ai/ha, visual injury rating, approximately 10 d; for pest or weed control at 500 g/ha: 500 g ai/ha
# Procedure, shortened: as §1
# [15] = tested on: ragweed (common ragweed, Ambrosia elatior); test: Test A preemergence; settings: Ambrosia artemisiifolia, pre-emergence, 240 h, preemergence, 0 to 100 scale where 0 is no effect and 100 is complete control, read-out: Ragweed plant response rating; for pest or weed control at 125 g/ha: 125 g ai/ha, visual injury rating, approximately 10 d; for pest or weed control at 500 g/ha: 500 g ai/ha
# Procedure, shortened: as §1
SMILES,pest or weed control at 125 g/ha ([1]; postemergence) [%],pest or weed control at 125 g/ha ([2]; postemergence) [%],pest or weed control at 125 g/ha (Kochia (Kochia scoparia) [3]; postemergence) [%],pest or weed control at 125 g/ha ([4]; postemergence) [%],pest or weed control at 125 g/ha ([5]; postemergence) [%],pest or weed control at 125 g/ha ([6]; postemergence) [%],plant injury at 125 g/ha [7] [%],plant injury at 125 g/ha (corn (Zea mays); postemergence) [%],pest or weed control at 125 g/ha ([8]; postemergence) [%],pest or weed control at 125 g/ha ([9]; postemergence) [%],pest or weed control at 125 g/ha [10] [%],pest or weed control at 500 g/ha [10] [%],pest or weed control at 125 g/ha (Kochia (Kochia scoparia) [11]) [%],pest or weed control at 500 g/ha (Kochia (Kochia scoparia) [11]) [%],pest or weed control at 125 g/ha [12] [%],pest or weed control at 500 g/ha [12] [%],pest or weed control at 125 g/ha [13] [%],pest or weed control at 500 g/ha [13] [%],pest or weed control at 125 g/ha [14] [%],pest or weed control at 500 g/ha [14] [%],other results
O=C1NC[C@H](c2ccc(C(F)(F)F)cc2)C1C(=O)Nc1c(F)cccc1CO (stereo partly drawn) [Compound 1243],0,0,0,0,0,0,0,0,0,0,0,0,0,0,0,0,0,0,0,0,"pest or weed control at 500 g/ha ([1]; postemergence, 0 to 100 scale, 0 is no effect, 100 is complete control, read-out: Galium plant response rating): 0%; pest or weed control at 500 g/ha ([2]; postemergence, 0 to 100 scale, 0 is no effect, 100 is complete control, read-out: Barnyardgrass plant response rating): 0%; pest or weed control at 500 g/ha (Kochia (Kochia scoparia) [3]; postemergence, 0 to 100 scale, 0 is no effect, 100 is complete control, read-out: Kochia plant response rating): 0%; pest or weed control at 500 g/ha ([4]; postemergence, 0 to 100 scale, 0 is no effect, 100 is complete control, read-out: Pigweed plant response rating): 0%; pest or weed control at 500 g/ha ([5]; postemergence, 0 to 100 scale, 0 is no effect, 100 is complete control, read-out: Foxtail, Giant plant response rating): 0%; pest or weed control at 500 g/ha ([6]; postemergence, 0 to 100 scale, 0 is no effect, 100 is complete control, read-out: Ryegrass, Italian plant response rating): 0%; plant injury at 500 g/ha (corn (Zea mays); 500 g ai/ha, postemergence, 0 to 100 scale, 0 is no effect, 100 is complete control, read-out: Corn plant response rating): 0%; pest or weed control at 500 g/ha ([8]; postemergence, 0 to 100 scale, 0 is no effect, 100 is complete control, read-out: Ragweed plant response rating): 0%; pest or weed control at 500 g/ha ([9]; postemergence, 0 to 100 scale, 0 is no effect, 100 is complete control, read-out: Blackgrass plant response rating): 0%; pest or weed control at 125 g/ha [15]: 0%; pest or weed control at 500 g/ha [15]: 0%"
Cc1cc([C@H]2CNC(=O)[C@@H]2C(=O)Nc2ccccc2S(C)(=O)=O)ccc1Cl [Compound 1246],50,50,0,0,20,0,0,0,10,0,60,80,60,80,0,0,50,70,0,50,"pest or weed control at 500 g/ha ([1]; Postemergence, visual injury, 0 to 100 scale (0 no effect, 100 complete control), approx. 10 d, read-out: Plant response rating, Galium): 60%; pest or weed control at 500 g/ha ([2]; Postemergence, visual injury, 0 to 100 scale (0 no effect, 100 complete control), approx. 10 d, read-out: Plant response rating, Barnyardgrass): 80%; pest or weed control at 500 g/ha (Kochia (Kochia scoparia) [3]; Postemergence, visual injury, 0 to 100 scale (0 no effect, 100 complete control), approx. 10 d, read-out: Plant response rating, Kochia): 20%; pest or weed control at 500 g/ha ([4]; Postemergence, visual injury, 0 to 100 scale (0 no effect, 100 complete control), approx. 10 d, read-out: Plant response rating, Pigweed): 20%; pest or weed control at 500 g/ha ([5]; Postemergence, visual injury, 0 to 100 scale (0 no effect, 100 complete control), approx. 10 d, read-out: Plant response rating, Foxtail, Giant): 20%; pest or weed control at 500 g/ha ([6]; Postemergence, visual injury, 0 to 100 scale (0 no effect, 100 complete control), approx. 10 d, read-out: Plant response rating, Ryegrass, Italian): 0%; plant injury at 500 g/ha ([7]; Postemergence, 500 g ai/ha, visual injury, 0 to 100 scale (0 no effect, 100 complete control), approx. 10 d, read-out: Plant response rating, Wheat): 40%; Corn plant response rating (crop injury, 0 = no effect, 100 = complete kill) at 500 g/ha (corn (Zea mays); Postemergence, 500 g ai/ha, visual injury, 0 to 100 scale (0 no effect, 100 complete control), approx. 10 d): 40%; pest or weed control at 500 g/ha ([8]; Postemergence, visual injury, 0 to 100 scale (0 no effect, 100 complete control), approx. 10 d, read-out: Plant response rating, Ragweed): 60%; pest or weed control at 500 g/ha ([9]; Postemergence, visual injury, 0 to 100 scale (0 no effect, 100 complete control), approx. 10 d, read-out: Plant response rating, Blackgrass): 40%; pest or weed control at 125 g/ha [15]: 40%; pest or weed control at 500 g/ha [15]: 60%"

# Source: patent US12077503B2, “Substituted cyclic amides and their use as herbicides” (FMC CORPORATION, priority 2015, dated 2024)
